Experimental data reported in ChEMBL document CHEMBL1201862, “PubChem BioAssay data set” (2004).
Active and inactive are the calls of the source. Cut-off read from the data, not from the text of the source, for most assays here: actives have a measured EC50 and inactives only a lower limit.

Experiments:
[1] = Luminescence Cell-Based Dose Retest to Confirm Inhibitors of Cancer Stem Cells. [Related pubchem assays (depositor defined):AID2717, AID2721]; type: functional; conditions: Homo sapiens
[2] = target: T1, Heat shock factor protein 1 (Mus musculus, UniProt P38532); experiment: HSF1 potentiators in luciferase reporter cells, confirmation, cell-based, NIH3T3, luminescence, dose retest (AID 435004); type: functional;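 note: stress induced by proteasome inhibitor MG132 added 30 min after compound; luciferase reporter driven by HSF1 response element in NIH3T3 cells; actives raise luminescence as potentiators of the MG132 stress response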
T1 sequence (P38532 whole entry): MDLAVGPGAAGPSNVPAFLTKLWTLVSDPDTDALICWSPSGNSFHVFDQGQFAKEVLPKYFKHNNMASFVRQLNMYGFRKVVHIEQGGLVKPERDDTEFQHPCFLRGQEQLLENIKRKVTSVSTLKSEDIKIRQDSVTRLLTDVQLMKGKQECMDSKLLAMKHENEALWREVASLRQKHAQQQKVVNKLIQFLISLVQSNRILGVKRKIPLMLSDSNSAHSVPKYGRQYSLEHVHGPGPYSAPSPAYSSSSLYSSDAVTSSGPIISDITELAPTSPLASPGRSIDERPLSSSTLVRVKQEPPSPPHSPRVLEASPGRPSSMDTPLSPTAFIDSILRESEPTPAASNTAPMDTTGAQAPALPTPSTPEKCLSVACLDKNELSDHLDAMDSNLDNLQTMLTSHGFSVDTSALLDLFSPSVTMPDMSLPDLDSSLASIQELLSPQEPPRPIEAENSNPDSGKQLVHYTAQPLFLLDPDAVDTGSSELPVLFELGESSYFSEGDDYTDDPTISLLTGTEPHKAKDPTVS

[3] = target: Luciferin 4-monooxygenase (Photinus pyralis, UniProt P08659); experiment: firefly luciferase enzyme inhibitors, dose response, biochemical, luminescence (AID 1891)
Sequence of Luciferin 4-monooxygenase (P08659 whole entry): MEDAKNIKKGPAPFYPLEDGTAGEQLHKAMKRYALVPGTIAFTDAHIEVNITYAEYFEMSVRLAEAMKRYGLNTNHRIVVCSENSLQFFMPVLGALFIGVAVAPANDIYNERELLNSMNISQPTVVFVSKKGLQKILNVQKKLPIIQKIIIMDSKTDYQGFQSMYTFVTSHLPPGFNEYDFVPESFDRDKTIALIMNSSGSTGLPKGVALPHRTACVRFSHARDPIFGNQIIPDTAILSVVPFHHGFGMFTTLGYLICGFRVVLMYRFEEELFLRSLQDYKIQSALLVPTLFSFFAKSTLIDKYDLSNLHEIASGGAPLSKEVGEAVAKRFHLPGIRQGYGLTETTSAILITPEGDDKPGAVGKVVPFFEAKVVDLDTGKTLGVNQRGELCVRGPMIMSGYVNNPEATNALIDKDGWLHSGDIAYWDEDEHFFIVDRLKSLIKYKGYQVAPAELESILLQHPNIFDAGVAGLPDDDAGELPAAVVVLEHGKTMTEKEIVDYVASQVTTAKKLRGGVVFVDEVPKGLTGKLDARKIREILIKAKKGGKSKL

[4] = Luminescence Cell-Based Dose Confirmation HTS to Identify Inhibitors of Platelet Dense Granule Release. [Related pubchem assays: 1663 (Primary HTS), 1678 (Summary of Project)]; type: functional
[5] = target: T2, Corticotropin-releasing factor receptor 2/Corticotropin-releasing factor-binding protein (Homo sapiens, UniProt P24387+Q13324); experiment: activators of CRF receptor 2 with binding protein – uHTS hits, confirmation (AID 602473); type: functional; conditions: read-out: EC50_Mean
T2 sequence (Q13324 whole entry): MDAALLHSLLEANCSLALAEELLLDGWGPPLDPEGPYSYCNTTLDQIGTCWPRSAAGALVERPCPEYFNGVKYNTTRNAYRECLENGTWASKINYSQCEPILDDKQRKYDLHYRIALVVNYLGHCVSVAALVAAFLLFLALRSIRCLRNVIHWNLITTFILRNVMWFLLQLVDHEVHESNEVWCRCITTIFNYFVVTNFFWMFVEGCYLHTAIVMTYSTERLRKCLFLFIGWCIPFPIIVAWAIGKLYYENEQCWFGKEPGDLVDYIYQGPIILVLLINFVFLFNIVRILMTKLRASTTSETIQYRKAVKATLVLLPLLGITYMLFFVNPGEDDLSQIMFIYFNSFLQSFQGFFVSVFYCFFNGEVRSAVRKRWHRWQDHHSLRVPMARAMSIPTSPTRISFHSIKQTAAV
T2 sequence (P24387 whole entry): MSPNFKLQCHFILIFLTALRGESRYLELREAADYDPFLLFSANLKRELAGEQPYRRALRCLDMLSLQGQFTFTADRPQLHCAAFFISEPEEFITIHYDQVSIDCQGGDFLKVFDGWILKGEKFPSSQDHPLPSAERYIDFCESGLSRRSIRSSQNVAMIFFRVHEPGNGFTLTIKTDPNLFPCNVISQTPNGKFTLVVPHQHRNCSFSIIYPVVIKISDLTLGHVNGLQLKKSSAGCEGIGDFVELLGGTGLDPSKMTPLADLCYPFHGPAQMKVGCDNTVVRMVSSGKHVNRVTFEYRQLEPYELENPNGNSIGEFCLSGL
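Throughout, for AC50: cells exposed to compound for roughly 70 hours or longer before luminescence read.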

| Compound | EC50 [2] | EC50 [3] | EC50 [4] | further results |
| --- | --- | --- | --- | --- |
| CCOC(=O)c1c(C)nc2c(c1-c1ccc(Cl)cc1)C(=O)CC(C)(C)C2 |  |  |  | AC50 [1]: 12.2 µM (active) |
| CCOC(=O)c1cc(NC(=O)COc2ccc([N+](=O)[O-])cc2)cc(C(=O)OCC)c1 | > 260 µM (inactive) |  |  |  |
| Cc1ccc(S(=O)(=O)N2CCN(C(=O)CSc3ccc(Cl)cc3)CC2)cc1 | > 260 µM (inactive) |  |  |  |
| CCOc1ccc(CN(CCO)CCO)cc1C(=O)OC |  | > 112 µM (not active) | > 112 µM (not active) |  |
| O=S(=O)(Nc1ccc(-c2ccc3nncn3n2)cc1)c1cc(F)ccc1F |  | > 112 µM (not active) | > 112 µM (not active) |  |
| CC(C)(Oc1ccc(Cl)cc1)C(=O)Nc1ccc2oc(-c3ccncc3)nc2c1 | > 260 µM (inactive) |  |  |  |
| Cc1ccc(Cl)cc1NC(=O)c1cc(S(=O)(=O)N2CCOCC2)cn1C |  | > 112 µM (not active) | > 112 µM (not active) |  |
| CCOC(=O)C(C)n1cnc2c(nnn2-c2ccc(F)cc2)c1=O (stereo unspecified) |  | > 112 µM (not active) | > 112 µM (not active) |  |
| O=C(Nc1ccc(O)c(-c2nc3ccccc3o2)c1)C1(c2ccc(Cl)cc2)CCCC1 | > 260 µM (inactive) |  |  |  |
| Cc1cccc(C)c1NS(=O)(=O)c1ccc(NC(=O)c2ccc(Cl)c([N+](=O)[O-])c2)cc1 |  |  |  | AC50 [1]: 1.46 µM (active) |
| CCc1cc(C(=O)c2ccc(OC)cc2)c(N)s1 | > 260 µM (inactive) |  |  |  |
| CC(C)[C@H](NC(=O)OC(C)(C)C)c1nnc(SCC(=O)Nc2ccc(Br)cc2)o1 | 98.6 µM (active) |  |  |  |
| O=C(Nc1nccs1)c1ccc(COc2ccccc2Cl)o1 |  |  |  | AC50 [1]: 2.45 µM (active) |
| O=S(=O)(NC1CCCC1)c1ccc(S(=O)(=O)NC2CCCC2)cc1 |  |  |  | EC50 [5]: > 53 µM (inactive) |
| COc1ccccc1Nc1nc(NCc2ccco2)c2ccccc2n1 |  | > 112 µM (not active) | > 112 µM (not active) |  |
| O=C1CC(c2ccc(F)cc2)CC2=Nc3ccccc3NC=C12 (stereo unspecified) |  |  |  | AC50 [1]: 3.58 µM (active) |
| CCOc1cc(C(=S)N2CCOCC2)ccc1OS(=O)(=O)c1ccc(C)cc1 | > 260 µM (inactive) |  |  |  |
| O=C(O)c1c(Cl)c(Cl)c(Cl)c(Cl)c1C(=O)N1CCCC1 | > 260 µM (inactive) |  |  |  |
| Cc1cccc(NC(=O)CC(C)S(=O)(=O)c2ccc3c(c2)NC(=O)CO3)c1C (stereo unspecified) | > 260 µM (inactive) |  |  |  |
| COC(=O)C1CCN(C(=O)COC(=O)c2ccc(OC)c(S(=O)(=O)N3CCCc4ccccc43)c2)CC1 | > 260 µM (inactive) |  |  |  |
| COC(=O)c1ccc(N2CCN(CC(=O)c3ccc(-c4ccccc4)cc3)CC2)c([N+](=O)[O-])c1 |  | > 112 µM (not active) | > 112 µM (not active) |  |
| Cc1ccc(NC(=O)CSCc2ccc(F)cc2)cc1 |  | > 112 µM (not active) | > 112 µM (not active) |  |
| CC(NC(=O)c1cc(S(=O)(=O)N2CCCC2)cn1C)c1ccccc1 (stereo unspecified) |  | > 112 µM (not active) | > 112 µM (not active) |  |
| COc1ccc(C2NC(=O)c3[nH]nc(C)c32)c(OC)c1 (stereo unspecified) |  | > 112 µM (not active) | 2.83 µM (active) |  |
| Cc1ccc(Nc2nc(N3CCOCC3)c3ccccc3n2)cc1 |  | > 112 µM (not active) | > 112 µM (not active) |  |
| Cc1[nH]c2ccccc2c1C(=O)CSc1nncn1C |  | > 112 µM (not active) | > 112 µM (not active) |  |
| COc1ccc(OC)c(NC(=O)NNC(=O)COc2ccc(-c3ccccc3)cc2)c1 |  |  |  | AC50 [1]: 47.3 µM (active) |
| CCc1ccc(CN2C(=O)c3ccccc3C2C(=O)NCC2CCCO2)cc1 (stereo unspecified) | 137 µM (active) |  |  |  |
| CC1=CC(=O)OC2CC3OC4C[C@@H](C)C5OC6CC7O[C@]8(C)C/C=C\C9OC%10CC%11OC(CC(C)C%12OCCO%12)CC(O)[C@]%11(C)OC%10CC9OC8C[C@]7(C)O[C@]6(C)CCC5OC4C[C@]3(C)OC12 (stereo partly specified) |  |  |  | EC50 [5]: 5.68 µM (active) |
| O=c1c(/C=N/Nc2ccccc2)c(Sc2nnnn2-c2ccccc2)nc2ccccn12 |  |  |  | EC50 [5]: 10.1 µM (active) |
